{"source": "the NIST ThermoML archive (doi:10.1016/j.tca.2006.12.010)", "key": {"[1]": {"conditions": "101.33 kPa, Resistive pulse heating"}, "[2]": {"assay": "Molar enthalpy of transition or fusion", "conditions": "Crystal; Resistive pulse heating"}}, "note": "Numbers after ± are expanded uncertainties.", "data": [{"smiles": "[V]", "note": "[vanadium]", "values": [{"measurement": "thermal conductivity", "setting": "[1]; 2199 K, Crystal", "value": 41.35, "unit": "W/m/K"}, {"measurement": "thermal conductivity", "setting": "[1]; 2199 K, Liquid", "value": "39.08 ± 4.7", "unit": "W/m/K"}, {"measurement": "thermal conductivity", "setting": "[1]; 2250 K, Liquid", "value": "39.8 ± 4.8", "unit": "W/m/K"}, {"measurement": "thermal conductivity", "setting": "[1]; 2300 K, Liquid", "value": "40.49 ± 4.9", "unit": "W/m/K"}, {"measurement": "thermal conductivity", "setting": "[1]; 2350 K, Liquid", "value": "41.17 ± 4.9", "unit": "W/m/K"}, {"measurement": "thermal conductivity", "setting": "[1]; 2400 K, Liquid", "value": "41.82 ± 5", "unit": "W/m/K"}, {"measurement": "thermal conductivity", "setting": "[1]; 2450 K, Liquid", "value": "42.46 ± 5.1", "unit": "W/m/K"}, {"measurement": "thermal conductivity", "setting": "[1]; 2500 K, Liquid", "value": "43.08 ± 5.2", "unit": "W/m/K"}, {"measurement": "thermal conductivity", "setting": "[1]; 2550 K, Liquid", "value": "43.68 ± 5.2", "unit": "W/m/K"}, {"measurement": "thermal conductivity", "setting": "[1]; 2600 K, Liquid", "value": "44.26 ± 5.3", "unit": "W/m/K"}, {"measurement": "thermal conductivity", "setting": "[1]; 2650 K, Liquid", "value": "44.83 ± 5.4", "unit": "W/m/K"}, {"measurement": "thermal conductivity", "setting": "[1]; 2700 K, Liquid", "value": "45.37 ± 5.4", "unit": "W/m/K"}, {"measurement": "thermal conductivity", "setting": "[1]; 2750 K, Liquid", "value": "45.91 ± 5.5", "unit": "W/m/K"}, {"measurement": "thermal conductivity", "setting": "[1]; 2800 K, Liquid", "value": "46.42 ± 5.6", "unit": "W/m/K"}, {"measurement": "thermal conductivity", "setting": "[1]; 2850 K, Liquid", "value": "46.91 ± 5.6", "unit": "W/m/K"}, {"measurement": "thermal conductivity", "setting": "[1]; 2900 K, Liquid", "value": "47.39 ± 5.7", "unit": "W/m/K"}, {"measurement": "Molar enthalpy of transition or fusion", "setting": "[2]", "value": 4.94, "unit": "kcal/mol"}]}]}
